This is an account of results in US10189816B2, “Substituted pyridines as inhibitors of human immunodeficiency virus replication” (priority 2015, dated 2019).

SMILES strings stand for the structures. Where two headings read alike, the source gives them in different places.

The assay deals with NL-RLuc virus. Description: Inhibition of HIV replication (NL-RLuc reporter virus in MT-2 cells, luciferase readout). It counts as cell-based. The note with it: Human immunodeficiency virus 1, MT2, 120 h. The essentials:
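MT-2 cells infected with NL4-3-derived NL-RLuc reporter virus (Renilla luciferase replacing part of nef) with serial compound dilutions, RPMI 1640 + 10% FBS; 5 days. Growth by luciferase; EC50 from median effect equation, ≥2 experiments.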

For the molecule `Cc1nc(C)c([C@H](OC(C)(C)C)C(=O)O)c(N2CCC(C)(C)CC2)c1-c1ccc2c(c1)CCN(Cc1ccccc1C#N)C2` [Compound 62, (S)-2-(tert-butoxy)-2-(5-(2-(2-cyanobenzyl)-1,2,3,4-tetrahydroisoquinolin-6-yl)-4-(4,4-dimethylpiperidin-1-yl)-2,6-dimethylpyridin-3-yl)acetic acid], for the setting “read-out: Activity”, the EC50 is < 0.1 µM.

Turning to `Cc1nc(C)c([C@H](OC(C)(C)C)C(=O)O)c(N2CCC(C)(C)CC2)c1-c1ccc2c(c1)CCN(Cc1cc(C#N)ccc1F)C2` [Compound 63, (S)-2-(tert-butoxy)-2-(5-(2-(5-cyano-2-fluorobenzyl)-1,2,3,4-tetrahydroisoquinolin-6-yl)-4-(4,4-dimethylpiperidin-1-yl)-2,6-dimethylpyridin-3-yl)acetic acid], the EC50 (read-out: Activity) is < 0.1 µM.

Regarding `Cc1nc(C)c([C@H](OC(C)(C)C)C(=O)O)c(N2CCC(C)(C)CC2)c1-c1ccc2c(c1)CCN(Cc1ccc(C#N)cc1)C2` [Compound 64, (S)-2-(tert-butoxy)-2-(5-(2-(4-cyanobenzyl)-1,2,3,4-tetrahydroisoquinolin-6-yl)-4-(4,4-dimethylpiperidin-1-yl)-2,6-dimethylpyridin-3-yl)acetic acid], the EC50 (read-out: Activity) is < 0.1 µM.

Turning to `Cc1cc(C#N)ccc1CN1CCc2cc(-c3c(C)nc(C)c([C@H](OC(C)(C)C)C(=O)O)c3N3CCC(C)(C)CC3)ccc2C1` [Compound 65, (S)-2-(tert-butoxy)-2-(5-(2-(4-cyano-2-methylbenzyl)-1,2,3,4-tetrahydroisoquinolin-6-yl)-4-(4,4-dimethylpiperidin-1-yl)-2,6-dimethylpyridin-3-yl)acetic acid], where the note is “read-out: Activity”, the EC50 was < 0.1 µM.

Take `Cc1nc(C)c([C@H](OC(C)(C)C)C(=O)O)c(N2CCC(C)(C)CC2)c1-c1ccc2c(c1)CCN(Cc1cc(F)ccc1C(F)(F)F)C2` [Compound 66, (S)-2-(tert-butoxy)-2-(4-(4,4-dimethylpiperidin-1-yl)-5-(2-(5-fluoro-2-(trifluoromethyl)benzyl)-1,2,3,4-tetrahydroisoquinolin-6-yl)-2,6-dimethylpyridin-3-yl)acetic acid]: the EC50 is, setting by setting: (read-out: Activity) < 0.1 µM; (read-out: EC50 μM) 0.013 µM.

On to `Cc1nc(C)c([C@H](OC(C)(C)C)C(=O)O)c(N2CCC(C)(C)CC2)c1-c1ccc2c(c1)CCN(Cc1ccc(F)c(C(F)(F)F)c1)C2` [Compound 67, (S)-2-(tert-butoxy)-2-(4-(4,4-dimethylpiperidin-1-yl)-5-(2-(4-fluoro-3-(trifluoromethyl)benzyl)-1,2,3,4-tetrahydroisoquinolin-6-yl)-2,6-dimethylpyridin-3-yl)acetic acid], for which, under “read-out: Activity”, the EC50 is < 0.1 µM.

Take `Cc1nc(C)c([C@H](OC(C)(C)C)C(=O)O)c(N2CCC(C)(C)CC2)c1-c1ccc2c(c1)CCN(Cc1cc(F)cc(C(F)(F)F)c1)C2` [Compound 68, (S)-2-(tert-butoxy)-2-(4-(4,4-dimethylpiperidin-1-yl)-5-(2-(3-fluoro-5-(trifluoromethyl)benzyl)-1,2,3,4-tetrahydroisoquinolin-6-yl)-2,6-dimethylpyridin-3-yl)acetic acid]: the EC50 (read-out: Activity) was < 0.1 µM.

`Cc1nc(C)c([C@H](OC(C)(C)C)C(=O)O)c(N2CCC(C)(C)CC2)c1-c1ccc2c(c1)CCN(Cc1ccc(F)cc1C(F)(F)F)C2` [Compound 69, (S)-2-(tert-butoxy)-2-(4-(4,4-dimethylpiperidin-1-yl)-5-(2-(4-fluoro-2-(trifluoromethyl)benzyl)-1,2,3,4-tetrahydroisoquinolin-6-yl)-2,6-dimethylpyridin-3-yl)acetic acid]: under “read-out: Activity”, the EC50 is < 0.1 µM.

For `Cc1nc(C)c([C@H](OC(C)(C)C)C(=O)O)c(N2CCC(C)(C)CC2)c1-c1ccc2c(c1)CCN(Cc1cc(C(F)(F)F)ccc1F)C2` [Compound 70, (S)-2-(tert-butoxy)-2-(4-(4,4-dimethylpiperidin-1-yl)-5-(2-(2-fluoro-5-(trifluoromethyl)benzyl)-1,2,3,4-tetrahydroisoquinolin-6-yl)-2,6-dimethylpyridin-3-yl)acetic acid], for the setting “read-out: Activity”, the EC50 was < 0.1 µM.

On to `Cc1cc(CN2CCc3cc(-c4c(C)nc(C)c([C@H](OC(C)(C)C)C(=O)O)c4N4CCC(C)(C)CC4)ccc3C2)ccc1F` [Compound 71, (S)-2-(tert-butoxy)-2-(4-(4,4-dimethylpiperidin-1-yl)-5-(2-(4-fluoro-3-methylbenzyl)-1,2,3,4-tetrahydroisoquinolin-6-yl)-2,6-dimethylpyridin-3-yl)acetic acid], for which the EC50 (read-out: Activity) is < 0.1 µM.

For the molecule `Cc1nc(C)c([C@H](OC(C)(C)C)C(=O)O)c(N2CCC(C)(C)CC2)c1-c1ccc2c(c1)CCN(Cc1ccc(F)c(C)c1C)C2` [Compound 72, (S)-2-(tert-butoxy)-2-(4-(4,4-dimethylpiperidin-1-yl)-5-(2-(4-fluoro-2,3-dimethylbenzyl)-1,2,3,4-tetrahydroisoquinolin-6-yl)-2,6-dimethylpyridin-3-yl)acetic acid], the EC50 (read-out: Activity) was < 0.1 µM.

As to `Cc1ccc(CN2CCc3cc(-c4c(C)nc(C)c([C@H](OC(C)(C)C)C(=O)O)c4N4CCC(C)(C)CC4)ccc3C2)c(F)c1F` [Compound 73, (S)-2-(tert-butoxy)-2-(5-(2-(2,3-difluoro-4-methylbenzyl)-1,2,3,4-tetrahydroisoquinolin-6-yl)-4-(4,4-dimethylpiperidin-1-yl)-2,6-dimethylpyridin-3-yl)acetic acid], the EC50 is < 0.1 µM (read-out: Activity) and 0.007 µM (read-out: EC50 μM).

With `Cc1ccc(F)c(CN2CCc3cc(-c4c(C)nc(C)c([C@H](OC(C)(C)C)C(=O)O)c4N4CCC(C)(C)CC4)ccc3C2)c1` [Compound 74, (S)-2-(tert-butoxy)-2-(4-(4,4-dimethylpiperidin-1-yl)-5-(2-(2-fluoro-5-methylbenzyl)-1,2,3,4-tetrahydroisoquinolin-6-yl)-2,6-dimethylpyridin-3-yl)acetic acid], for the setting “read-out: Activity”, the EC50 is < 0.1 µM.

For `Cc1cc(CN2CCc3cc(-c4c(C)nc(C)c([C@H](OC(C)(C)C)C(=O)O)c4N4CCC(C)(C)CC4)ccc3C2)cc(C)c1F` [Compound 75, (S)-2-(tert-butoxy)-2-(4-(4,4-dimethylpiperidin-1-yl)-5-(2-(4-fluoro-3,5-dimethylbenzyl)-1,2,3,4-tetrahydroisoquinolin-6-yl)-2,6-dimethylpyridin-3-yl)acetic acid], the EC50 (read-out: Activity) is < 0.1 µM.

In the case of `Cc1cc(CN2CCc3cc(-c4c(C)nc(C)c([C@H](OC(C)(C)C)C(=O)O)c4N4CCC(C)(C)CC4)ccc3C2)cc(F)c1F` [Compound 76, (S)-2-(tert-butoxy)-2-(5-(2-(3,4-difluoro-5-methylbenzyl)-1,2,3,4-tetrahydroisoquinolin-6-yl)-4-(4,4-dimethylpiperidin-1-yl)-2,6-dimethylpyridin-3-yl)acetic acid], the EC50 (read-out: Activity) was < 0.1 µM.

Regarding `Cc1nc(C)c([C@H](OC(C)(C)C)C(=O)O)c(N2CCC(C)(C)CC2)c1-c1ccc2c(c1)CCN(Cc1ccccc1C(C)C)C2` [Compound 77, (S)-2-(tert-butoxy)-2-(4-(4,4-dimethylpiperidin-1-yl)-5-(2-(2-isopropylbenzyl)-1,2,3,4-tetrahydroisoquinolin-6-yl)-2,6-dimethylpyridin-3-yl)acetic acid], where the note is “read-out: Activity”, the EC50 is < 0.1 µM.

Regarding `Cc1cc(C)c(CN2CCc3cc(-c4c(C)nc(C)c([C@H](OC(C)(C)C)C(=O)O)c4N4CCC(C)(C)CC4)ccc3C2)cc1C` [Compound 78, (S)-2-(tert-butoxy)-2-(4-(4,4-dimethylpiperidin-1-yl)-2,6-dimethyl-5-(2-(2,4,5-trimethylbenzyl)-1,2,3,4-tetrahydroisoquinolin-6-yl)pyridin-3-yl)acetic acid], under “read-out: Activity”, the EC50 was < 0.1 µM.

`Cc1cc(C)cc(CN2CCc3cc(-c4c(C)nc(C)c([C@H](OC(C)(C)C)C(=O)O)c4N4CCC(C)(C)CC4)ccc3C2)c1` [Compound 79, (S)-2-(tert-butoxy)-2-(5-(2-(3,5-dimethylbenzyl)-1,2,3,4-tetrahydroisoquinolin-6-yl)-4-(4,4-dimethylpiperidin-1-yl)-2,6-dimethylpyridin-3-yl)acetic acid]: the EC50 (read-out: Activity) is < 0.1 µM.

Turning to `Cc1cccc(CN2CCc3cc(-c4c(C)nc(C)c([C@H](OC(C)(C)C)C(=O)O)c4N4CCC(C)(C)CC4)ccc3C2)c1C` [Compound 80, (S)-2-(tert-butoxy)-2-(5-(2-(2,3-dimethylbenzyl)-1,2,3,4-tetrahydroisoquinolin-6-yl)-4-(4,4-dimethylpiperidin-1-yl)-2,6-dimethylpyridin-3-yl)acetic acid], the EC50 (read-out: Activity) is < 0.1 µM and the EC50 (read-out: EC50 μM) worked out at 0.003 µM.

As for `Cc1nc(C)c([C@H](OC(C)(C)C)C(=O)O)c(N2CCC(C)(C)CC2)c1-c1ccc2c(c1)CCN(Cc1cccc(C(C)(C)C)c1)C2` [Compound 81, (S)-2-(tert-butoxy)-2-(5-(2-(3-(tert-butyl)benzyl)-1,2,3,4-tetrahydroisoquinolin-6-yl)-4-(4,4-dimethylpiperidin-1-yl)-2,6-dimethylpyridin-3-yl)acetic acid], the EC50 (read-out: Activity) was < 0.1 µM.

`Cc1nc(C)c([C@H](OC(C)(C)C)C(=O)O)c(N2CCC(C)(C)CC2)c1-c1ccc2c(c1)CCN(Cc1cccc(F)c1C)C2` [Compound 82, (S)-2-(tert-butoxy)-2-(4-(4,4-dimethylpiperidin-1-yl)-5-(2-(3-fluoro-2-methylbenzyl)-1,2,3,4-tetrahydroisoquinolin-6-yl)-2,6-dimethylpyridin-3-yl)acetic acid]: the EC50 (read-out: Activity) was < 0.1 µM.

As for `COc1cc(F)c(CN2CCc3cc(-c4c(C)nc(C)c([C@H](OC(C)(C)C)C(=O)O)c4N4CCC(C)(C)CC4)ccc3C2)cc1F` [Compound 83, (S)-2-(tert-butoxy)-2-(5-(2-(2,5-difluoro-4-methoxybenzyl)-1,2,3,4-tetrahydroisoquinolin-6-yl)-4-(4,4-dimethylpiperidin-1-yl)-2,6-dimethylpyridin-3-yl)acetic acid], for the setting “read-out: Activity”, the EC50 was < 0.1 µM.

For the molecule `Cc1nc(C)c([C@H](OC(C)(C)C)C(=O)O)c(N2CCC(C)(C)CC2)c1-c1ccc2c(c1)CCN(Cc1cc(Cl)cc(Cl)c1OCc1ccccc1)C2` [Compound 85, (S)-2-(5-(2-(2-(benzyloxy)-3,5-dichlorobenzyl)-1,2,3,4-tetrahydroisoquinolin-6-yl)-4-(4,4-dimethylpiperidin-1-yl)-2,6-dimethylpyridin-3-yl)-2-(tert-butoxy)acetic acid], the EC50 (read-out: Activity) was < 0.1 µM.
